Results published in US20200261605A1, “FUNCTIONALIZED LIPOSOMES FOR IMAGING MISFOLDED PROTEINS” (ALZECA BIOSCIENCES, LLC, priority 2019, published 2020).

Legend:
[1] = biological target: tau fibrils (phosphorylated tau-441 (2N4R)) (Homo sapiens, UniProt P10636); assay: Binding studies with tau fibrils (fluorescence, no separation); details: 0.85 μM tau fibrils, 2 hours; Ex 360 nm, Em 535 nm
Experimental: Lyophilized tau-441 (2N4R) was dissolved in buffer containing 40 mM HEPES, 5 mM EGTA, 3 mM MgCl2, pH 7.5. Tau was phosphorylated with GSK-3b in the presence of 2 mM ATP at 30° C. for 40 hours. Tau was used at 30-75 μM concentration, and GSK-3b was used at 0.02-0.08 U/pmol of tau. SDS PAGE gel was run to confirm the phosphorylation of tau (FIG. 8).
To make fibrils, the phosphorylated tau was reacted with arachidonic acid (ARA). The p-tau was diluted in 10 mM HEPES, 1 mM EDTA, 5 mM DTT and 150 mM NaCl at pH-7.6 to final concentration of 32 μM and ARA at 37 times molar excess of tau was added. The mixture was incubated for 2 days at 37° C. for 2 days. Fresh DTT was supplemented daily. The oligomers formed were used as seeds for fibril formation. 8 μM of tau seeds were used to form fibrils with 30 μM p-tau in 10 mM HEPES, 1 mM EDTA, 5 mM DTT and 150 mM NaCl at pH-7.6. ARA was used at 37 times molar excess over p-tau monomer and incubated at 37° C. for 2 days. Fresh DTT was added every day.
Different dilutions of p-FTAA molecule were added and mixed with 0.85 μM of tau fibrils and incubated for 2 hours. The mixture was assayed as is without separation of bound and unbound fibrils. Excitation at 360 nm and emission at 535 nm was used for detection of p-FTAA binding to tau fibrils.

α-Synuclein fibrils = α-Synuclein fibrils (Homo sapiens, UniProt P37840); assay: Binding studies with α-Synuclein fibrils (fluorescence of unbound fraction); details: 5 μM α-Synuclein fibrils, 2 hours incubation; read-out: dissociation constant, Kd
Experimental: Different dilutions of Conjugate A liposomes or p-FTAA were added and mixed with 5 μM of α-Synuclein fibrils and incubated for 2 hours. The mixture was centrifuged at 21000 g for 5 mins. The supernatant was removed and assayed for fluorescence of p-FTAA that was unbound to the fibrils. Excitation of 405 nm and emission of 574 nm emission was used. A standard curve from known concentrations of liposomes or pFTAA was made. The bound fraction was calculated as the difference between the total pFTAA or pFTAA-liposomes that was incubated and the unbound fraction. […] A dissociation constant of 3 nM was determined for the p-FTAA molecule (FIG. 7B).

Sequence of tau fibrils (phosphorylated tau-441 (2N4R)) (P10636 1-441 isoform P10636-8): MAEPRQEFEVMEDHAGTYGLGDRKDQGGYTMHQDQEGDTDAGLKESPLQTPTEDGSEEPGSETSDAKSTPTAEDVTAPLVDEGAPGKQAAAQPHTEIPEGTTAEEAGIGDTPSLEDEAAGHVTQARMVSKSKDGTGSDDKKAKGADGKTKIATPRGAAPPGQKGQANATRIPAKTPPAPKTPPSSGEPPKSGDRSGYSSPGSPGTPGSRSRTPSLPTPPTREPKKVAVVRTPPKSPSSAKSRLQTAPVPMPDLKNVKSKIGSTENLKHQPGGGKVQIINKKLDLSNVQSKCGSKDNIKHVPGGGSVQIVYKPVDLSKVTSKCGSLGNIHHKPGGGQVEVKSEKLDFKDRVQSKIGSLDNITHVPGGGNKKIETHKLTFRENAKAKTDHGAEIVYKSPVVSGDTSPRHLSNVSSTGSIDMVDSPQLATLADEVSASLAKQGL

fluorescence with tau fibrils in comparison to p-FTAA only [1]: increase in fluorescence
Kd (α-Synuclein fibrils): 3 nM
SMILES: O=C(O)Cc1cc(-c2ccc(C(=O)O)s2)sc1-c1ccc(-c2sc(-c3ccc(C(=O)O)s3)cc2CC(=O)O)s1 [p-FTAA, pentameric formyl thiophene acetic acid]
